From PubChem BioAssay (NCI)
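Protocol summary: plate cells (96-well), add compound at 5 concentrations, incubate 48 h, interpolate endpoints linearly. TGI: total growth inhibition.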

Assays:
Test in all cases: DTP human tumour cell line panel, 48 h
A549 NSCLC = system: A549 NSCLC
DLD-1 colon = system: DLD-1 colon
HOP-18 NSCLC = system: HOP-18 NSCLC
HOP-62 NSCLC = system: HOP-62 NSCLC
KM20L2 colon = system: KM20L2 colon
LXFL 529 NSCLC = system: LXFL 529 NSCLC
M14 melanoma = system: M14 melanoma
M19-MEL melanoma = system: M19-MEL melanoma
SNB-78 CNS = system: SNB-78 CNS
XF 498 CNS = system: XF 498 CNS
DMS 114 small cell lung = system: DMS 114 small cell lung
DMS 273 small cell lung = system: DMS 273 small cell lung
SK-OV-3 ovarian = system: SK-OV-3 ovarian
MDA-MB-231 breast = system: MDA-MB-231 breast
RXF-631 renal = system: RXF-631 renal

Row | SMILES | TGI (A549 NSCLC) [µM] | TGI (DLD-1 colon) [µM] | TGI (HOP-18 NSCLC) [µM] | TGI (HOP-62 NSCLC) [µM] | TGI (KM20L2 colon) [µM] | TGI (LXFL 529 NSCLC) [µM] | TGI (M14 melanoma) [µM] | TGI (M19-MEL melanoma) [µM] | TGI (SNB-78 CNS) [µM] | TGI (XF 498 CNS) [µM] | TGI (DMS 114 small cell lung) [µM] | TGI (DMS 273 small cell lung) [µM] | TGI (SK-OV-3 ovarian) [µM] | TGI (MDA-MB-231 breast) [µM] | TGI (RXF-631 renal) [µM]
1 | CCOC(=O)/C(C1=NCCN1C)=C(\O)c1ccccc1 | > 100 | > 100 | > 100 | > 100 | > 100 | > 100 | > 100 | > 100 | > 100 | > 100 | – | – | – | – | –
2 | COc1ccc(S(=O)(=O)N/N=C(\C)CN2C(=O)c3ccccc3C2=O)cc1OC | > 100 | > 100 | > 100 | > 100 | > 100 | > 100 | > 100 | > 100 | > 100 | > 100 | > 100 | > 100 | > 100 | – | –
3 | Cc1c(-c2coc(-c3ccc([N+](=O)[O-])cc3)n2)c(=O)n(-c2ccccc2)n1C | > 100 | > 100 | – | > 100 | > 100 | > 100 | > 100 | > 100 | > 100 | – | > 100 | > 100 | > 100 | – | –
4 | O=C1c2ccccc2C(=O)c2c1oc1cc(O)c(Cl)cc21 | 9.46 | 19.5 | 6.79 | 21.7 | 6.79 | > 46.3 | 6.88 | 0.445 | 19.5 | 20.2 | 6.1 | 10.8 | 40 | 33.9 | –
5 | O=C1CCC(=O)c2ccccc2N1 | > 100 | > 100 | > 100 | > 100 | > 100 | > 100 | > 100 | > 100 | – | > 100 | > 100 | > 100 | > 100 | – | –
6 | O=C(O)C12C3CCC(C3)C1(C(=O)O)C1CCC2C1 (configuration not stated) | > 100 | 64.1 | > 100 | > 100 | > 100 | > 100 | > 100 | > 100 | > 100 | > 100 | > 100 | > 100 | > 100 | – | > 100
7 | N#CCCC(C#N)(C#N)CCC#N | > 100 | – | – | > 100 | > 100 | > 100 | > 100 | > 100 | – | > 100 | > 100 | > 100 | > 100 | – | –
8 | Cc1ccc(S(=O)(=O)c2ccc(C)cc2[N+](=O)[O-])c([N+](=O)[O-])c1 | > 100 | – | – | > 100 | > 100 | > 100 | > 100 | > 100 | > 100 | > 100 | > 100 | > 100 | – | – | –
9 | COc1cc2ccnc(C#N)c2cc1OCc1ccccc1 | > 100 | > 100 | > 100 | > 100 | > 100 | > 100 | > 100 | – | > 100 | > 100 | – | – | – | – | –
10 | O=c1[nH]c(=O)n([C@H]2C[C@@H](CO)[C@@H](O)C2)cc1I | > 100 | > 100 | > 100 | > 100 | > 100 | > 100 | > 100 | > 100 | > 100 | – | > 100 | > 100 | > 100 | – | –
11 | O=C1C(Cl)C(c2ccc(O)cc2)N1n1cnc2ccccc2c1=O (configuration not stated) | > 100 | 55.3 | > 100 | > 100 | > 100 | 39.5 | 96.8 | 46.9 | > 100 | > 66.8 | > 81 | > 100 | > 100 | – | –
12 | COC(=O)C(=O)C(C(=O)OC)C(=O)C(=O)Nc1cc(Cl)c(C)cc1S(=O)(=O)O (configuration not stated) | > 100 | > 100 | > 100 | > 100 | > 100 | > 100 | > 100 | > 100 | > 100 | > 100 | > 100 | > 100 | > 100 | – | –
13 | COP12(OC)NC(=O)OC1(C(F)(F)F)c1ccccc1O2 (configuration not stated) | > 100 | > 100 | > 100 | – | – | > 100 | > 100 | > 100 | > 100 | > 100 | > 100 | > 100 | > 100 | – | –
